From ChEMBL document CHEMBL5038625, “Application of the dual-tail approach for the design and synthesis of novel Thiopyrimidine-Benzenesulfonamide hybrids as selective carbonic anhydrase inhibitors” (Eur J Med Chem, 2022)

Tests used:
SK-OV-3 = experiment: Antiproliferative activity against human SK-OV-3 cells assessed as cell growth inhibition at 10 uM incubated for 24 hrs by sulforhodamine B assay; format: functional; details: read-out: GI
NCI-H522 = experiment: Antiproliferative activity against human NCI-H522 cells assessed as cell growth inhibition at 10 uM incubated for 24 hrs by sulforhodamine B assay; format: functional; details: read-out: GI
NCI-H23 = experiment: Antiproliferative activity against human NCI-H23 cells assessed as cell growth inhibition at 10 uM incubated for 24 hrs by sulforhodamine B assay; format: functional; details: read-out: GI
ACHN = experiment: Antiproliferative activity against human ACHN cells assessed as cell growth inhibition at 10 uM incubated for 24 hrs by sulforhodamine B assay; format: functional; details: read-out: GI
NCI-H226 = experiment: Antiproliferative activity against human NCI-H226 cells assessed as cell growth inhibition at 10 uM incubated for 24 hrs by sulforhodamine B assay; format: functional; details: read-out: GI
Carbonic anhydrase 9 = Carbonic anhydrase 9 (Homo sapiens, UniProt Q16790); experiment: Inhibition of human CA9 preincubated for 15 mins by phenol red dye based stopped flow CO2 hydration assay
MDA-MB-231 [1] = experiment: Antiproliferative activity against human MDA-MB-231 cells assessed as cell growth inhibition at 10 uM incubated for 24 hrs by sulforhodamine B assay; format: functional; details: read-out: GI
MCF7 [2] = experiment: Antiproliferative activity against human MCF7 cells assessed as cell growth inhibition at 10 uM incubated for 24 hrs by sulforhodamine B assay; format: functional; details: read-out: GI
T47D [3] = experiment: Antiproliferative activity against human T47D cells assessed as reduction in cell viability incubated for 24 hrs by sulforhodamine B assay; format: functional, cell-based
UACC-62 = experiment: Antiproliferative activity against human UACC-62 cells assessed as cell growth inhibition at 10 uM incubated for 24 hrs by sulforhodamine B assay; format: functional; details: read-out: GI
MDA-MB-468 = experiment: Antiproliferative activity against human MDA-MB-468 cells assessed as cell growth inhibition at 10 uM incubated for 24 hrs by sulforhodamine B assay; format: functional; details: read-out: GI
LOX IMVI = experiment: Antiproliferative activity against human LOX IMVI cells assessed as cell growth inhibition at 10 uM incubated for 24 hrs by sulforhodamine B assay; format: functional; details: read-out: GI
MDA-MB-231 [4] = experiment: Antiproliferative activity against human MDA-MB-231 cells assessed as reduction in cell viability incubated for 24 hrs by sulforhodamine B assay; format: functional, cell-based; details: MDA-MB-231, 24 h
MCF7 [5] = experiment: Antiproliferative activity against human MCF7 cells assessed as reduction in cell viability incubated for 24 hrs by sulforhodamine B assay; format: functional, cell-based; details: MCF7, 24 h
CAKI-1 = experiment: Antiproliferative activity against human CAKI-1 cells assessed as cell growth inhibition at 10 uM incubated for 24 hrs by sulforhodamine B assay; format: functional; details: read-out: GI
HL-60 = experiment: Antiproliferative activity against human HL-60 cells assessed as cell growth inhibition at 10 uM incubated for 24 hrs by sulforhodamine B assay; format: functional; details: read-out: GI
786-0 = experiment: Antiproliferative activity against human 786-0 cells assessed as cell growth inhibition at 10 uM incubated for 24 hrs by sulforhodamine B assay; format: functional; details: read-out: GI
RXF 393 = experiment: Antiproliferative activity against human RXF 393 cells assessed as cell growth inhibition at 10 uM incubated for 24 hrs by sulforhodamine B assay; format: functional; details: read-out: GI
UO-31 = experiment: Antiproliferative activity against human UO-31 cells assessed as cell growth inhibition at 10 uM incubated for 24 hrs by sulforhodamine B assay; format: functional; details: read-out: GI
HCT-15 = experiment: Antiproliferative activity against human HCT-15 cells assessed as cell growth inhibition at 10 uM incubated for 24 hrs by sulforhodamine B assay; format: functional; details: read-out: GI
SK-MEL-5 = experiment: Antiproliferative activity against human SK-MEL-5 cells assessed as cell growth inhibition at 10 uM incubated for 24 hrs by sulforhodamine B assay; format: functional; details: read-out: GI
EKVX = experiment: Antiproliferative activity against human EKVX cells assessed as cell growth inhibition at 10 uM incubated for 24 hrs by sulforhodamine B assay; format: functional; details: read-out: GI
K562 = experiment: Antiproliferative activity against human K562 cells assessed as cell growth inhibition at 10 uM incubated for 24 hrs by sulforhodamine B assay; format: functional; details: read-out: GI
OVCAR-4 = experiment: Antiproliferative activity against human OVCAR-4 cells assessed as cell growth inhibition at 10 uM incubated for 24 hrs by sulforhodamine B assay; format: functional; details: read-out: GI
SK-MEL-2 = experiment: Antiproliferative activity against human SK-MEL-2 cells assessed as cell growth inhibition at 10 uM incubated for 24 hrs by sulforhodamine B assay; format: functional; details: read-out: GI
T47D [6] = experiment: Antiproliferative activity against human T47D cells assessed as cell growth inhibition at 10 uM incubated for 24 hrs by sulforhodamine B assay; format: functional; details: read-out: GI
MOLT-4 = experiment: Antiproliferative activity against human MOLT-4 cells assessed as cell growth inhibition at 10 uM incubated for 24 hrs by sulforhodamine B assay; format: functional; details: read-out: GI
SN12C = experiment: Antiproliferative activity against human SN12C cells assessed as cell growth inhibition at 10 uM incubated for 24 hrs by sulforhodamine B assay; format: functional; details: read-out: GI
Malme-3M = experiment: Antiproliferative activity against human Malme-3M cells assessed as cell growth inhibition at 10 uM incubated for 24 hrs by sulforhodamine B assay; format: functional; details: read-out: GI
PC-3 = experiment: Antiproliferative activity against human PC-3 cells assessed as cell growth inhibition at 10 uM incubated for 24 hrs by sulforhodamine B assay; format: functional; details: read-out: GI
Carbonic anhydrase 2 = Carbonic anhydrase 2 (Homo sapiens, UniProt P00918); experiment: Inhibition of human CA2 preincubated for 15 mins by phenol red dye based stopped flow CO2 hydration assay
RPMI-8226 = experiment: Antiproliferative activity against human RPMI-8226 cells assessed as cell growth inhibition at 10 uM incubated for 24 hrs by sulforhodamine B assay; format: functional; details: read-out: GI
HCT-116 = experiment: Antiproliferative activity against human HCT-116 cells assessed as cell growth inhibition at 10 uM incubated for 24 hrs by sulforhodamine B assay; format: functional; details: read-out: GI

Structure (SMILES) | inhibition of growth at 10 µM (NCI-H522) | inhibition of growth at 10 µM (NCI-H23) | inhibition of growth at 10 µM (ACHN) | inhibition of growth at 10 µM (NCI-H226) | Ki (Carbonic anhydrase 9) | inhibition of growth at 10 µM (MDA-MB-231 [1]) | inhibition of growth at 10 µM (MCF7 [2]) | inhibition of growth at 10 µM (UACC-62) | inhibition of growth at 10 µM (MDA-MB-468) | inhibition of growth at 10 µM (CAKI-1) | inhibition of growth at 10 µM (HL-60) | inhibition of growth at 10 µM (RXF 393) | inhibition of growth at 10 µM (UO-31) | other results
CC(C)c1nc(SCC(=O)c2ccccc2)nc(Nc2ccc(S(N)(=O)=O)cc2)c1C#N | 10.1% | 13.1% | 7.34% | 11.8% | 0.0966 µM | 5.5% | 11.4% | 10.2% | 9.86% | 8.76% | 5.93% | 13.8% | 36.3% | inhibition of growth at 10 µM (SK-OV-3): 5.58%; IC50 (T47D [3]): 46.4 µM; inhibition of growth at 10 µM (LOX IMVI): 16.5%; IC50 (MDA-MB-231 [4]): 21 µM; IC50 (MCF7 [5]): 47.6 µM; inhibition of growth at 10 µM (786-0): 5.2%
CC(C)c1nc(SCC(=O)c2ccc(Br)cc2)nc(Nc2ccc(S(N)(=O)=O)cc2)c1C#N | 10.7% | 20.2% | 6.53% | 21.1% | 0.38 µM | 9.41% | 6.24% | 24.3% | 15.3% | 12.2% | 24.1% | 22.2% | 31.2% | inhibition of growth at 10 µM (HCT-15): 7.17%; inhibition of growth at 10 µM (SK-MEL-5): 5.21%; inhibition of growth at 10 µM (EKVX): 10.7%; inhibition of growth at 10 µM (K562): 9.23%; inhibition of growth at 10 µM (OVCAR-4): 6.52%; inhibition of growth at 10 µM (SK-MEL-2): 9.02%; inhibition of growth at 10 µM (T47D [6]): 33%; inhibition of growth at 10 µM (MOLT-4): 13.7%; inhibition of growth at 10 µM (SN12C): 5.41%; inhibition of growth at 10 µM (Malme-3M): 11.7%; inhibition of growth at 10 µM (PC-3): 12.5%; Ki (Carbonic anhydrase 2): > 20 µM; inhibition of growth at 10 µM (RPMI-8226): 12.3%; inhibition of growth at 10 µM (HCT-116): 6.95%
